Reference: PMC3800014 (Journal of insect physiology, 2013)

Legend:
Format in all cases: cell-based
[1] = target: T1, CquiOR1 (CquiOR1•CquiOrco) (Culex quinquefasciatus, UniProt S5RQ84); test: Xenopus oocyte recording, UM laboratory; conditions: agonist; co-expressed CquiOrco; positive control
T1 sequence (S5RQ84 1-391): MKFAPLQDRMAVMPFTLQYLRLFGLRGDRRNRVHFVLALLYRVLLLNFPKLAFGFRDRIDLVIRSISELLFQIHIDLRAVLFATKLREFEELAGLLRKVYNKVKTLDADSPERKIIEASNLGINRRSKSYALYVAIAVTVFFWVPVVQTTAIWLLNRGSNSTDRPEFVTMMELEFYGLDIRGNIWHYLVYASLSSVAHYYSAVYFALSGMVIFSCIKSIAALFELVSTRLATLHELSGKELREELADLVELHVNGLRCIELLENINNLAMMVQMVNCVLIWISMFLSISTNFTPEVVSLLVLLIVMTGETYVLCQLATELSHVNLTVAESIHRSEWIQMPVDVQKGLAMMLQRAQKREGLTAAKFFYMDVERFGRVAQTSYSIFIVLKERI

[2] = target: T1, CquiOR1 (CquiOR1•CquiOrco); test: two-electrode voltage clamp, Xenopus oocytes, inward current; conditions: agonist; co-expressed CquiOrco; -70 mV
[3] = target: T2, CquiOR44 (CquiOR44•CquiOrco) (Culex quinquefasciatus, UniProt S5RSX8); test: as above; conditions: agonist; co-expressed CquiOrco; -70 mV
T2 sequence (S5RSX8 1-423): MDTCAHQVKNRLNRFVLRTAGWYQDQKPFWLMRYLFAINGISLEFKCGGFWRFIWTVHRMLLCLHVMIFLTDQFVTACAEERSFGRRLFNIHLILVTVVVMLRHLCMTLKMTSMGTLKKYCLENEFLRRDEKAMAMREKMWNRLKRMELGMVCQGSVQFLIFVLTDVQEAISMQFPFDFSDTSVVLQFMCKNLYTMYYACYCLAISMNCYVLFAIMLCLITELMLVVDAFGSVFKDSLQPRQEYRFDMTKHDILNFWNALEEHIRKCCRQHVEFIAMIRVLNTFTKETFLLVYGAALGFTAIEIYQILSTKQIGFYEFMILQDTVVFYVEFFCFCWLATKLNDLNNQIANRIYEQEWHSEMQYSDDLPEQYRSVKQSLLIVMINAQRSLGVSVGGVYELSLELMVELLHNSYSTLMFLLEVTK

[4] = target: T3, CquiOR73 (CquiOR73•CquiOrco) (Culex quinquefasciatus, UniProt S5R433); test: as above; conditions: agonist; co-expressed CquiOrco; -70 mV
T3 sequence (S5R433 1-396): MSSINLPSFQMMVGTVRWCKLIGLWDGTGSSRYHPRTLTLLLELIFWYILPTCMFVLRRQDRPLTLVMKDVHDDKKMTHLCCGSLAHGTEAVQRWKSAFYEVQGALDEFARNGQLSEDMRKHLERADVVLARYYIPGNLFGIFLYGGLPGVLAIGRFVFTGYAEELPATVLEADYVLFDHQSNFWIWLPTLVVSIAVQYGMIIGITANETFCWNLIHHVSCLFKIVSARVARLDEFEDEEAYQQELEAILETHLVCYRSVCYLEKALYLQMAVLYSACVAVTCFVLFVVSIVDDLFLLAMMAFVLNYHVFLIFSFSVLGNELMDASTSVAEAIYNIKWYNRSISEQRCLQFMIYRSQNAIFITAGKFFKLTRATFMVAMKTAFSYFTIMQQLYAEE

## CCc1ccc(O)cc1 [4-ethylphenol]
[1]
  Xenopus oocyte recording, UM laboratory: medium to large responses when challenged with indole, 4-ethylphenol, 4-methylphenol, phenol

## CCCCCCO [1-hexanol]
[2]
  two-electrode voltage clamp, Xenopus oocytes, inward current: when CquiOR1 was challenged with 1-hexanol, 1-octen-3-ol, 2-phenoxyethanol, or benzaldehyde

## CC1(C)C(=O)[C@@]2(C)CC[C@@H]1C2 [(+)-fenchone]
[3]
  two-electrode voltage clamp, Xenopus oocytes, inward current: no chiral discrimination as responses to (+)- and (−)-fenchone did not differ

## C=CCc1ccc(O)c(OC)c1 [eugenol]
[4]
  two-electrode voltage clamp, Xenopus oocytes, inward current: eugenol was the best ligand identified for this OR

## CC1(C)C(=O)[C@]2(C)CC[C@H]1C2 [(−)-fenchone]
[3]
  two-electrode voltage clamp, Xenopus oocytes, inward current: no chiral discrimination as responses to (+)- and (−)-fenchone did not differ

## CC1CCC(C(C)(C)O)C(O)C1 (stereo not drawn) [p-menthane-3,8-diol]
[3]
  two-electrode voltage clamp, Xenopus oocytes, inward current: including known natural repellents like p-menthane-3,8-diol

## C=CC(O)CCCCC (stereo not drawn) [1-octen-3-ol]
[2]
  two-electrode voltage clamp, Xenopus oocytes, inward current: when CquiOR1 was challenged with 1-hexanol, 1-octen-3-ol, 2-phenoxyethanol, or benzaldehyde

## CCCCCCCCOC(C)=O [octyl acetate]
[4]
  two-electrode voltage clamp, Xenopus oocytes, inward current: no significant response to the majority of compounds in the panel, except for octyl acetate

## CC(=O)c1ccccc1 [acetophenone]
[1]
  Xenopus oocyte recording, UM laboratory: phenol, acetophenone, benzaldehyde, and 6-methyl-5-hepten-2-one
